Results as given in BindingDB's records for doi:10.1016/j.chembiol.2004.08.006 (University of Washington, 2004).

Key:
Assay in all cases: Inhibition Assay
[1] = biological target: T1, Coagulation factor VIII (Homo sapiens, UniProt P00451); settings: 37 °C
Excerpt: Inhibition of factor VIII C2 domain.

[2] = biological target: T1, Coagulation factor VIII; settings: pH 7.9
Excerpt: Inhibition of factor X activation assay. A commercially available chromogenic assay that measures the rate of factor X activation to measure inhibiton of the cofactor function of factor VIII.

[3] = biological target: T1, Coagulation factor VIII; settings: pH 8
Method: Inhibition of factor VIII ELISA. The interaction between factor VIII and PS was measured by using an enzyme-linked immunoadsorbent assay (ELISA).

T1 sequence (P00451 20-759 limits assumed): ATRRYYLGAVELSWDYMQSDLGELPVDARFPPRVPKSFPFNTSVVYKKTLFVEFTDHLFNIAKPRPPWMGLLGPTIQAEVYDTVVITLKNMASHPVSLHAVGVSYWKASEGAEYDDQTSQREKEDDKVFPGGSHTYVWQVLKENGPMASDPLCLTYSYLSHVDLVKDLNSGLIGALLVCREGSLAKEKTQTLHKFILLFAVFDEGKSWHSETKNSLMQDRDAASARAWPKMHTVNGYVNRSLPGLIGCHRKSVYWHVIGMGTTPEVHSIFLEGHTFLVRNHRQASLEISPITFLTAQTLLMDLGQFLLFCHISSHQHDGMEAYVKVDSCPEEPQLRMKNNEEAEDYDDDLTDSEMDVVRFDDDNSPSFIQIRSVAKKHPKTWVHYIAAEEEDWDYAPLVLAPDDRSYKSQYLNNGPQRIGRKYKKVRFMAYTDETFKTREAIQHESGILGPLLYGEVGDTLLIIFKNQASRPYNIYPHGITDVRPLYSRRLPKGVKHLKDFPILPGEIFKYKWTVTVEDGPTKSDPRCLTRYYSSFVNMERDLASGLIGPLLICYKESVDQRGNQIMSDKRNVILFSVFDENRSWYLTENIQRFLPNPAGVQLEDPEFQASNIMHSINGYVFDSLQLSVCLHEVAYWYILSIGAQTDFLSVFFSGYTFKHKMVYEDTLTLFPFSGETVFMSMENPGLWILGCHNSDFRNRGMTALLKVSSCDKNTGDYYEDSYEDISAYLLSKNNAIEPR
T1 sequence (P00451 1668-2351 limits assumed): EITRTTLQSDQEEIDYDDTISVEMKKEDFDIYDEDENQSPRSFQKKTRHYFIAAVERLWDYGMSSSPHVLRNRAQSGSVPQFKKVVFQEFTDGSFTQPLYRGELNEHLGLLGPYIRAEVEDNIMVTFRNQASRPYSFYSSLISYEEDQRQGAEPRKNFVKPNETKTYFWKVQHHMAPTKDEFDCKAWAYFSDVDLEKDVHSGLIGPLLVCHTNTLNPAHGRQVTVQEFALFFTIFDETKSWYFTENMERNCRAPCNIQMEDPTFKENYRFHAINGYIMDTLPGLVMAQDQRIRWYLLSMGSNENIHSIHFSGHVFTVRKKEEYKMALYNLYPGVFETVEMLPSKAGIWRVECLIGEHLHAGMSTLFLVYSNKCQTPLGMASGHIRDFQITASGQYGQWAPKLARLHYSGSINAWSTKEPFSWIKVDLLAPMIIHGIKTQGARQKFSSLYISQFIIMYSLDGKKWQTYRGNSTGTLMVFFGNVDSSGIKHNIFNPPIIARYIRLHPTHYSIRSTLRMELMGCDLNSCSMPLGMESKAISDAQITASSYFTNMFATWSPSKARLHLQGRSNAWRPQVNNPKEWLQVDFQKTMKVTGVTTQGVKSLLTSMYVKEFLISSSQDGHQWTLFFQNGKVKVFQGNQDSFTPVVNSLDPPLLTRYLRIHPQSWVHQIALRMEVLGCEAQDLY

CCOc1ccc(-c2cc(C)n3nc(C(N)=O)cc3n2)cc1
IC50 [1]: 26.8 µM

CC(C=Cc1ccco1)=NCCCCNC(=O)C=Cc1ccco1 [5247489]
IC50 [1]: 56.1 µM

CCOC(=O)c1c(NC(=S)NC(=O)c2ccccc2)sc2c1CCC(C)C2 (stereo unspecified) [5523453]
IC50 [1]: 27.7 µM

O=C1/C(=C/c2ccc(Br)o2)SC(=S)N1c1cccc(C(F)(F)F)c1 [5737176]
IC50 [1]: 6.66 µM | IC50 [2]: 8.5 µM | IC50 [3]: 9.25 µM

O=C1/C(=C/c2ccc(I)o2)SC(=S)N1c1cccc(C(F)(F)F)c1 [5738875]
IC50 [1]: 5.65 µM | IC50 [2]: 5 µM | IC50 [3]: 6.83 µM

O=C1/C(=C/c2ccc(Br)o2)SC(=S)N1c1ccc([N+](=O)[O-])cc1 [5739991]
IC50 [1]: 4.63 µM | IC50 [2]: 11.7 µM | IC50 [3]: 10.4 µM

N=C(NN=Cc1ccc(F)cc1)NN=Cc1ccc(F)cc1 [5924029]
IC50 [1]: 24.5 µM

COc1cc(/C=C2/SC(=S)N(CC(=O)Nc3ccccn3)C2=O)cc(OC)c1OC [6126765]
IC50 [1]: 11.9 µM

CCOc1ccc(Cl)cc1/C=C1/SC(=S)N(CC)C1=O [6168356]
IC50 [1]: 49.6 µM

O=C1NC(=S)NC(=O)C1=Cc1ccc(-c2cc(Cl)c([N+](=O)[O-])cc2Cl)o1 [6190013]
IC50 [1]: 8.48 µM | IC50 [2]: 7.5 µM | IC50 [3]: 2.11 µM

COc1cc(C=Nn2c(O)csc2=S)ccc1OCCOc1ccc(C(C)(C)C)cc1 [6209549]
IC50 [1]: 12.4 µM

O=C1/C(=C\c2ccc(Sc3ccc(Cl)cc3)o2)SC(=S)N1c1ccc([N+](=O)[O-])cc1 [6789536]
IC50 [1]: 5.85 µM | IC50 [2]: 5.6 µM | IC50 [3]: 4.81 µM

O=C1/C(=C/c2ccc(-c3ccc(Cl)cc3Cl)o2)SC(=S)N1c1cccc(C(F)(F)F)c1 [8047577]
IC50 [1]: 2.44 µM | IC50 [2]: 2.1 µM | IC50 [3]: 2.56 µM

O=C1NC(=S)NC(=O)C1=Cc1ccc(-c2ccc(Cl)c(C(=O)O)c2)o1 [8048422]
IC50 [1]: 4.17 µM | IC50 [2]: 6.7 µM | IC50 [3]: 3.89 µM

O=C1NC(=S)NC(=O)C1=Cc1ccc(-c2cccc(C(=O)O)c2Cl)o1 [8056354]
IC50 [1]: 6.29 µM | IC50 [2]: 6.8 µM | IC50 [3]: 6.51 µM
